The values that follow come from US9315459B2, “Crystalline forms of 4-[2-(4-methylphenylsulfanyl)-phenyl] piperidine” (priority 2006, dated 2016).

SMILES strings stand for the structures. Counter-ions that a name gives are not always drawn.

The series can be described thus: Solubility of salts in water, pH of the saturated solution and identity of the precipitate. It is filed as physicochemical. The conditions noted are these: for Precipitate: precipitate isolated after the solubility determination compared with the compound dissolved; for Solubility in words: summary of table 3; for Formation of hydrates: when precipitated from water; for Resulting pH: pH in the saturated solution of the salt.

Description: If the acid was a liquid it was added neat otherwise it was dissolved in the given solvent prior to addition. After mixing and precipitation stirring was continued overnight and the precipitate collected by filtration. Before drying in vacuum at 30° C. a small reference sample was withdrawn and dried at room temperature without vacuum. This procedure was included in order to test for solvates.

Turning to `Cc1ccc(Sc2ccccc2C2CCNCC2)cc1` (racemic), the Precipitate result is reported as “=start (after” and the Solubility in words result is reported as “exceptionally high solubility”. In the case of `Cc1ccc(Sc2ccccc2C2CCNCC2)cc1` [Adipicacid, 1,6-hexanedioic acid 2:1], the Precipitate result is reported as “=start”. Take `Cc1ccc(Sc2ccccc2C2CCNCC2)cc1` [Citric acid 2:1]: the Precipitate result is reported as “=Start”. As to `Cc1ccc(Sc2ccccc2C2CCNCC2)cc1` [D-tartaric acid, D-2,3-dihydroxy butanedioic acid 1:1], the Precipitate result was “Hydrate” and the Formation of hydrates entry is recorded as “do”. As for `Cc1ccc(Sc2ccccc2C2CCNCC2)cc1` [Fumaric acid 1:1], the Precipitate entry is recorded as “=start”. In the case of `Cc1ccc(Sc2ccccc2C2CCNCC2)cc1` [Glutamic acid 1:1], the Solubility in words result is on record as “exceptionally high solubility”. With `Cc1ccc(Sc2ccccc2C2CCNCC2)cc1` [Glutaric acid, 1,5-pentanedioic acid 1:1], the Precipitate result was “=start” and the Solubility in words entry is given as “exceptionally high solubility”. Take `Cc1ccc(Sc2ccccc2C2CCNCC2)cc1` [HBr, 4-[2-(4-methylphenylsulfanyl)phenyl]piperidine hydrobromide]: under “hydrobromide”, the “Resulting pH” value was 7.0 and the Precipitate result was “=Start”. For the same compound, under “listed as HBr addition salt, hydrobromide”, the Formation of hydrates entry is listed as “does not form hydrates”. `Cc1ccc(Sc2ccccc2C2CCNCC2)cc1` [HCl, 4-[2-(4-methylphenyl-sulfanyl)phenyl]piperidine hydrochloride addition salt]: the Precipitate entry is given as “=Start”. Consider `Cc1ccc(Sc2ccccc2C2CCNCC2)cc1` [Oxalic acid 1:1], for which the Precipitate result was “=Start”. Turning to `Cc1ccc(Sc2ccccc2C2CCNCC2)cc1` [Phosphoric acid 1:1], the “Resulting pH” value is 2.0. On to `Cc1ccc(Sc2ccccc2C2CCNCC2)cc1` [Sebacoinic acid, 1,8-octanedioic acid 2:1], for which the Precipitate entry is recorded as “=Start”.
